Experimental data reported in PubChem BioAssay (NCI).
“And” between values parts separate entries of the source, which are not always exact repeats. Identical values can stand only once.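 A five-concentration, 48-hour dose response in 96-well plates underlies each endpoint, interpolated linearly between surrounding concentrations. GI50 is the concentration that inhibits growth by half. TGI marks complete inhibition of growth.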 Non-standard residues stand in square brackets, D forms with d. Residues, ends and D or L forms follow the SMILES beside them. *: point of attachment. ONb = O=[N+]([O-])c1ccc(CO*)cc1; AllylGly = C=CC[CH](N)C(=O)O; Boc = CC(C)(C)OC(=O)*

Tests used:
Assay in all cases: DTP human tumour cell line panel, 48 h
A549 NSCLC = test system: A549 NSCLC
COLO 205 colon = test system: COLO 205 colon
HOP-92 NSCLC = test system: HOP-92 NSCLC
K-562 leukemia = test system: K-562 leukemia
LOX IMVI melanoma = test system: LOX IMVI melanoma
MOLT-4 leukemia = test system: MOLT-4 leukemia
OVCAR-3 ovarian = test system: OVCAR-3 ovarian
SF-268 CNS = test system: SF-268 CNS
SR leukemia = test system: SR leukemia
T-47D breast = test system: T-47D breast

SMILES	GI50 (A549 NSCLC)	TGI (A549 NSCLC)	GI50 (COLO 205 colon)	TGI (COLO 205 colon)	GI50 (HOP-92 NSCLC)	TGI (HOP-92 NSCLC)	GI50 (K-562 leukemia)	TGI (K-562 leukemia)	GI50 (LOX IMVI melanoma)	TGI (LOX IMVI melanoma)	GI50 (MOLT-4 leukemia)	TGI (MOLT-4 leukemia)	GI50 (OVCAR-3 ovarian)	TGI (OVCAR-3 ovarian)	GI50 (SF-268 CNS)	TGI (SF-268 CNS)	GI50 (SR leukemia)	TGI (SR leukemia)	GI50 (T-47D breast)	TGI (T-47D breast)
CNC(=O)c1cc(OC2CCC(NC(=O)Nc3ccc(Cl)c(C(F)(F)F)c3)CC2)ccn1 (stereo not given)	4.53 µM	26.6 µM	8810 nM	22.3 µM	6.8 µM	27.1 µM	3660 nM	17.3 µM	4.96 µM	22.2 µM	4000 nM	21.5 µM	10700 nM	32 µM	13.7 µM	52 µM	4420 nM	32.7 µM	5.31 µM	39.4 µM
Cc1ccc(CNc2c3ccccc3nc3ccccc23)cc1	1.94 µM	5.05 µM	1570 nM	3.59 µM	1.36 µM	5.05 µM	1970 nM	13.1 µM	1.48 µM	2.84 µM	2850 nM	10.5 µM	2420 nM	6.22 µM	2.98 µM	11.3 µM	1560 nM	6.22 µM	1.87 µM	4.83 µM
C=C1CC2(OC1=O)C(=O)N(CCCCCCCN1C(=O)C3(CC(=C)C(=O)O3)c3ccccc31)c1ccccc12 (stereo not given)	9.16 µM	24.8 µM	1380 nM	5.58 µM	1.03 µM	3.64 µM	953 nM	6.06 µM	0.763 µM	1.54 µM	267 nM	5.53 µM	1270 nM	4.07 µM	3.97 µM	12 µM	475 nM	3.58 µM	1.17 µM	5.02 µM
COc1cc2c3c(n(C)c(=O)c2cc1OC)-c1cc2c(cc1/C3=C\CCCCCN)OCO2	6.53 µM	> 54.5 µM	5800 nM	> 100 µM	4.03 µM	29 µM							2790 nM	22.1 µM	3.92 µM	47.9 µM	< 10 nM		5.61 µM	> 55.5 µM
O=C(CN1CCN(c2ncccn2)CC1)Nc1ccc(Cl)cc1C(=O)c1ccccc1Cl	47.6 µM	> 100 µM	> 100000 nM	> 100 µM	5.73 µM	75.1 µM	32000 nM	> 100 µM	> 100 µM	> 100 µM	21900 nM	> 100 µM	> 100000 nM	> 100 µM	> 100 µM	> 100 µM	67800 nM	> 100 µM	30.8 µM	> 100 µM
Cc1ncc(CN=Cc2ccc(Cl)cc2)c(N)n1		> 100 µM		> 100 µM		> 100 µM		> 100 µM		> 100 µM		> 100 µM		> 100 µM		> 100 µM		> 100 µM		> 100 µM
C=CCn1c2c(c3ccccc3c1=O)C(=O)c1ccccc1-2		> 100 µM		> 100 µM		> 100 µM		> 100 µM		> 100 µM		16.8 µM		> 100 µM		> 100 µM		> 100 µM		> 100 µM
CS(=O)(=O)CCNCc1nc(-c2ccc3ncnc(Nc4ccc(F)c(Cl)c4)c3c2)cs1	15.8 µM	> 25 µM	> 20500 nM	> 25 µM	9.82 µM	> 25 µM	> 12500 nM	> 19.7 µM	14.1 µM	> 25 µM	15300 nM	> 25 µM	11100 nM	> 25 µM	> 17.9 µM	> 25 µM	> 14000 nM	> 22.2 µM	8.57 µM	> 25 µM
N=C1C(c2nc(-c3ccc(Br)cc3)cs2)=C(O)CN1Cc1cccnc1	26.6 µM	> 100 µM	11900 nM	38.4 µM	22.2 µM	84.1 µM	8170 nM	> 100 µM	12 µM	29.4 µM	4390 nM	42.7 µM	14000 nM	42 µM	31.6 µM	> 100 µM	17300 nM	67.2 µM	4.89 µM	56.1 µM
O=C1NCc2ccc3c(-c4cccc(Cl)c4)c[nH]c3c21	0.438 µM	> 50 µM	297 nM		3.22 µM	> 50 µM	134 nM	> 50 µM	0.279 µM	> 50 µM	256 nM	> 50 µM	180 nM	> 50 µM	0.5 µM	> 50 µM	84.9 nM	> 50 µM	0.277 µM	> 50 µM
C[C@@H]1C[C@@H](O)[C@]2(O)O[C@@H]3C[C@@]4(C=O)[C@@H](CC[C@@H]5[C@@H]4CC[C@]4(C)[C@@H](C6=CC(=O)OC6)CC[C@]54O)C[C@H]3O[C@@H]2O1	0.0146 µM	0.0117 µM and 0.0413 µM	108 nM and 25 nM	0.0826 µM and 0.277 µM and 0.0918 µM	0.135 µM	0.234 µM and 0.683 µM	55.3 nM and 12.4 nM	0.601 µM and 1.59 µM and 0.523 µM	0.0472 µM	0.0624 µM and 0.165 µM and 0.0884 µM	6.99 nM and 5 nM		24.1 nM		0.00621 µM and 0.005 µM	0.0151 µM and 0.0247 µM and 0.0474 µM	13 nM	0.0128 µM and 0.0317 µM		0.89 µM
O=c1oc2cc(OS(=O)(=O)c3ccc(F)cc3)ccc2c2c1CCCCC2	> 100 µM	> 100 µM	2170 nM	> 100 µM	4.05 µM	95.1 µM			> 100 µM	> 100 µM	> 100000 nM	> 100 µM	> 100000 nM	> 100 µM	> 100 µM	> 100 µM	> 100000 nM	> 100 µM	1.86 µM	> 100 µM
C=CCC(NC(=O)OC(C)(C)C)C(=O)NC(CCC(=O)OCc1ccc([N+](=O)[O-])cc1)C(N)=O (stereo not given) (Boc-[AllylGly]-Glu(ONb)-NH2; configuration not given here)	52.3 µg/mL		22.9 µg/mL	53.1 µg/mL	13.3 µg/mL	26.5 µg/mL	18.2 µg/mL	65.5 µg/mL	49 µg/mL				26.3 µg/mL	90.1 µg/mL	21.8 µg/mL	49.7 µg/mL	47.8 µg/mL		77 µg/mL	
N#CCC1COc2ccccc2O1 (stereo not given)		> 10 µM		> 10 µM		> 10 µM		> 10 µM		> 10 µM		> 10 µM				> 10 µM		> 10 µM		> 10 µM
